From patent US20170210757A1 (ALFA WASSERMANN S.P.A., priority 2003, published 2017)
Like-named read-outs stand apart in the source and are kept apart here. Each block holds one compound with its values, some of them ahead of it.

Experiments:
[1] = Bioavailability in dogs by oral route (plasma rifaximin by LC-MS/MS); format: in vivo, Beagle female dogs
Experimental: Twelve 20 week pure-bred Beagle females dogs, and weighing between 5.0 and 7.5 kg, have been divided into three groups of four.
Each sample was transferred into an heparinized tube and was centrifuged; the plasma was divided into 50μl two aliquots and frozen at −20° C.
Tmax=time at which the Cmax is reached;
AUC=area under the concentration-time curve calculated through the linear trapezoidal rule.

[2] = Intrinsic dissolution test (USP 27 monograph 1087); format: physicochemical
Excerpt: The die-holder containing the compacted pellet has then been mounted on a laboratory stirring device, immersed in a dissolution medium and rotated by means of the stirring device.
A compacted pellet was formed in the die with a single face of defined area exposed on the bottom of the die so that from 50% to 75% of the compacted pellet could dissolve in an appropriate dissolution medium.
The holder containing the die was mounted on a laboratory stirring device, immersed in a glass vessel containing a dissolution medium and rotated at a rotation speed of 100 rpm by means of the stirring device, while keeping the temperature of the dissolution medium at 37±0.5° C. […]

[3] = Hygroscopicity and humidity-dependent transition between polymorphic forms; format: physicochemical; conditions: for hygroscopicity: reversibly absorb water under suitable conditions of pressure and humidity
Excerpt: Both the form γ and the forms α and β of rifaximin are hygroscopic, they reversibly absorb water in time in the presence of suitable environmental conditions of pressure and humidity and are susceptible of transformation from one form into another.

[4] = single oral administration of 100 mg/kg by capsules to female dogs, plasma, listed as Polimorph α, 100 mg/kg
[5] = single oral administration of 100 mg/kg by capsules to female dogs, plasma, listed as Polimorph β, 100 mg/kg
[6] = single oral administration of 100 mg/kg by capsules to female dogs, plasma, listed as Polimorph γ, 100 mg/kg

- Cmax ([1]; Beagle, dog, plasma, oral, 100 mg/kg, pharmaceutical composition comprising the polymorphic form, conditions not stated, read-out: Cmax (summary embodiment)): ~2 ng/mL
- Tmax ([1]; female, Beagle, dog, plasma, po, 100 mg/kg, single oral administration of 100 mg/kg by capsules to female dogs): 9.5 h
- AUC0-24 h (summary embodiment) ([1]; pharmaceutical composition comprising the polymorphic form, conditions not stated, listed as rifaximin in polymorphic form α): about 13 ng·h/ml
- AUC0-24 Mean [1, 4]: 13 ng·h/mL
- Cmax Mean [1, 4]: 2.632 ng/mL
- disintegration of the compacted pellet (time) ([2]; phosphate buffer pH 7.4, 37°C, with sodium lauryl sulfate, also at 0.1% and 0.3% and without surfactant): ≤ 10 min
- solid form transition under humidity ([3]; relative humidity higher than 50% for 12 to 48 hours): changes into the polymorphic form β
- hygroscopicity [3]: hygroscopic
Compound: CO[C@H]1/C=C/O[C@@]2(C)Oc3c(C)c(O)c4c(O)c(c5c(nc6cc(C)ccn65)c4c3C2=O)NC(=O)/C(C)=C\C=C\[C@H](C)[C@H](O)[C@@H](C)[C@@H](O)[C@@H](C)[C@H](OC(C)=O)[C@@H]1C [rifaximin α, rifaximin]

- AUC0-24 h (summary embodiment) ([1]; pharmaceutical composition comprising the polymorphic form, conditions not stated, listed as rifaximin in polymorphic form β): about 11 ng·h/ml
- AUC0-24 Mean [1, 5]: 11 ng·h/mL
- tmax Mean [1, 5]: 4 h
- Intrinsic dissolution rate ([2]; 0.1M aqueous phosphate buffer pH 7.4 with 0.45% sodium lauryl sulfate, 37°C, listed as β polymorph): 0.0147 mg/min/cm^2
- Rifaximin dissolved ([2]; 15 min, 0.1M aqueous phosphate buffer pH 7.4 with 0.45% sodium lauryl sulfate, 37°C, listed as β polymorph): 0.28 mg/cm^2
- Rifaximin dissolved ([2]; 30 min, 0.1M aqueous phosphate buffer pH 7.4 with 0.45% sodium lauryl sulfate, 37°C, listed as β polymorph): 0.50 mg/cm^2
- Rifaximin dissolved ([2]; 45 min, 0.1M aqueous phosphate buffer pH 7.4 with 0.45% sodium lauryl sulfate, 37°C, listed as β polymorph): 0.71 mg/cm^2
- Rifaximin dissolved ([2]; 60 min, 0.1M aqueous phosphate buffer pH 7.4 with 0.45% sodium lauryl sulfate, 37°C, listed as β polymorph): 0.94 mg/cm^2
- intrinsic dissolution rate (summary embodiment) ([2]; pharmaceutical composition comprising the polymorphic form, conditions not stated): about 0.01 mg/min/cm^2
- hygroscopicity [3]: hygroscopic
Compound: CO[C@H]1/C=C/O[C@@]2(C)Oc3c(C)c(O)c4c(O)c(c5c(nc6cc(C)ccn65)c4c3C2=O)NC(=O)/C(C)=C\C=C\[C@H](C)[C@H](O)[C@@H](C)[C@@H](O)[C@@H](C)[C@H](OC(C)=O)[C@@H]1C [rifaximin β, rifaximin]

- Cmax ([1]; female, Beagle, dog, plasma, po, 100 mg/kg, oral 100 mg/kg, Beagle female dogs, read-out: Cmax): 668 ng/mL
- absorption in respect of rifaximin α and rifaximin β ([1]; oral 100 mg/kg, Beagle female dogs): more than 102 times
- AUC0-24 h (summary embodiment) ([1]; pharmaceutical composition comprising the polymorphic form, conditions not stated, listed as rifaximin in polymorphic form γ): about 4000 ng·h/ml
- AUC0-24 Mean [1, 6]: 3908 ng·h/mL
- Cmax Mean [1, 6]: 668.22 ng/mL
- hygroscopicity [3]: hygroscopic
Compound: CO[C@H]1/C=C/O[C@@]2(C)Oc3c(C)c(O)c4c(O)c(c5c(nc6cc(C)ccn65)c4c3C2=O)NC(=O)/C(C)=C\C=C\[C@H](C)[C@H](O)[C@@H](C)[C@@H](O)[C@@H](C)[C@H](OC(C)=O)[C@@H]1C [rifaximin γ, rifaximin]
